# Active and inactive are the calls of the source.
# Experiments:
# [1] = cytotoxicity in HEK-293T cells, dose response, cytotoxicity control for TCR NF-kB inhibitor project, luminescence, T-cell screen hits (AID 489026); type: functional, cell-based;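 note: cells exposed to compound about 14 hours before the viability readout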
# cells [2] = type: functional, cell-based
# cells [3] = type: functional, cell-based; remark: listed apart in the source
# [4] = intracellular Trypanosoma cruzi inhibitors in host cells – cell-based, plate reader, cherry-pick samples, set 3, dose response (AID 651818); type: functional;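 note: compounds incubated with infected cells for about four days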
# [5] = Shn3 3'UTR reporter inhibitors, dose response, cell-based, Clone20 osteoblasts, firefly luciferase, cherry-picked (AID 624132); type: functional;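 note: firefly luciferase luminescence from reporter carrying the Shn3 3'UTR in osteoblasts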
# [6] = HepG2 cell cytotoxicity, dose response, cytotoxicity control for Shn3 inhibitor project, CellTiter-Glo, cherry-picked (AID 624134); type: functional, cell-based
# [7] = molecular target: T1, Heat shock factor protein 1 (Mus musculus, UniProt P38532); assay: HSF1 potentiators in luciferase reporter cells, confirmation, cell-based, NIH3T3, luminescence, dose retest (AID 435004); type: functional;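 note: stress induced by proteasome inhibitor MG132 added 30 min after compound; luciferase reporter driven by HSF1 response element in NIH3T3 cells; actives raise luminescence as potentiators of the MG132 stress response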
# T1 sequence (P38532 whole entry): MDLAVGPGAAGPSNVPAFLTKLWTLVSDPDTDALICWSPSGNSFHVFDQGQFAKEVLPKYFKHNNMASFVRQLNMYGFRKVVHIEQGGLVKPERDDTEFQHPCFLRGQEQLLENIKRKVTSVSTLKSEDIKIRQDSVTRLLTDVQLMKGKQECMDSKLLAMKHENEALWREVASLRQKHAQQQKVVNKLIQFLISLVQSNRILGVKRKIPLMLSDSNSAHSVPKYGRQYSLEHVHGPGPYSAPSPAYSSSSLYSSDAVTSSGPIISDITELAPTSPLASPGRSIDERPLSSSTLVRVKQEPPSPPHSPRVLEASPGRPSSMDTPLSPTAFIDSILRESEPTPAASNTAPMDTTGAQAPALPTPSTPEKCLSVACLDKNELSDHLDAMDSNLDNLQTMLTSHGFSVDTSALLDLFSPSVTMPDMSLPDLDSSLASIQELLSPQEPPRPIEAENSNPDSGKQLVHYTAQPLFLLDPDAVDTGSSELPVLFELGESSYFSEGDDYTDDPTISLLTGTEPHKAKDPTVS
# [8] = control 3'UTR Renilla luciferase suppression, dose response, counter-screen for Shn3 inhibitor project, cell-based, Clone20-Shn3RL, cherry-picked (AID 624133); type: functional
# Coagulation factor XII = molecular target: T2, Coagulation factor XII (Homo sapiens, UniProt P00748); type: functional;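 note: activated factor XIIa alpha cleaving a fluorogenic AMC peptide substrate; inhibitor potency from loss of enzyme activity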
# T2 sequence (P00748 whole entry): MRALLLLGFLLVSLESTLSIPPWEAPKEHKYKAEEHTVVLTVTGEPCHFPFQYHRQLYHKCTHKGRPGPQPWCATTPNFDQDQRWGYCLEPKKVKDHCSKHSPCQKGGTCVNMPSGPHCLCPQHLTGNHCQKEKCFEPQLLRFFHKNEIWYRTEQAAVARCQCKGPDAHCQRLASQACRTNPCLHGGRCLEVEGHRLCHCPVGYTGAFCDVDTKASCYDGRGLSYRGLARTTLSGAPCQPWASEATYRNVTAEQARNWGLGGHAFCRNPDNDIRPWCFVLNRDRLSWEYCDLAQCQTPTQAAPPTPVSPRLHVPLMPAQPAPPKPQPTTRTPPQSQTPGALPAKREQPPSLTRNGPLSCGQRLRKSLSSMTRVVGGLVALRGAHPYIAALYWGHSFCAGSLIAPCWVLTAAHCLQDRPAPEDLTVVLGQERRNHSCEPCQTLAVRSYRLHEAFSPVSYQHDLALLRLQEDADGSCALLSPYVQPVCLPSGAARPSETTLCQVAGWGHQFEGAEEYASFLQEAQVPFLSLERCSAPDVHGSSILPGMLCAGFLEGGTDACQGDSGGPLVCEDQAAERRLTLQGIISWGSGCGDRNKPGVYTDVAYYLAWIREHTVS
SMILES,EC50 (cells [2]),EC50 (cells [3]),other results
O=C(NN=Cc1c(O)ccc2ccccc12)c1ccc2c(c1)OCO2,,,IC50 [1]: > 80 µM (inactive)
COc1ccc2nc(NC(=O)Nc3ccccc3OC)sc2c1,> 350 µM (not active),4.4 µM (active),
CC(=O)NCCC(=O)Nc1cc(S(=O)(=O)N2CCOCC2)ccc1N1CCOCC1,> 350 µM (not active),> 350 µM (not active),
C[C@H]1CN([C@@H](C)CO)C(=O)c2cccc(NC(=O)Nc3ccc(F)cc3)c2O[C@@H]1CN(C)Cc1ccc(C(=O)Nc2ccccc2N)cc1,,,AC50 [4]: 3.18 µM (active)
CCCCCn1c(N2CCN(c3cccc(Cl)c3)CC2)nc2c1c(=O)[nH]c(=O)n2C,,,AC50 [5]: 21.8 µM (active); AC50 [6]: 59.4 µM (active); EC50 [7]: > 260 µM (inactive); AC50 [8]: 18.3 µM (active)
COc1ccccc1CNC(=O)c1cccc(NC(=O)c2ccccc2)c1,> 350 µM (not active),56.2 µM (active),
CC1=NC(C#N)=C(C#N)NC(C)(C)C1,> 350 µM (not active),> 350 µM (not active),
CN1CCN(c2ccc(CNS(=O)(=O)Cc3ccc(Cl)cc3)cc2)CC1,,,IC50 (Coagulation factor XII): > 50 µM (inactive)
CCCCCCCCCC(=O)Nn1cnc2ccccc2c1=O,,,IC50 (Coagulation factor XII): > 50 µM (inactive)

# Reference: ChEMBL document CHEMBL1201862, “PubChem BioAssay data set” (2004)
